Results: paper PMC6152192, “Novel Methylselenoesters as Antiproliferative Agents” (Molecules : A Journal of Synthetic Chemistry and Natural …, 2017)

Assays:
[1] = system: BEAS-2B (non-malignant bronchial epithelial); test: MTT viability assay, BEAS-2B; assay type: cell-based; conditions: BEAS-2B non-malignant, 72 h, MTT
Protocol: (§1) The novel compounds were tested against a panel of different cancer lines: PC-3 (prostate adenocarcinoma), MCF7 (mammary adenocarcinoma), HTB-54 (lung carcinoma), K-562 (chronic myelogenous leukemia) and HT-29 (colorectal adenocarcinoma). Two non-malignant cell lines, BEAS-2B (bronchial epithelial) and 184B5 (mammary epithelial) were also included to evaluate the toxicity of the novel synthesized compounds. The antiproliferative activity was measured with the [3-(4,5-dimethylthiazol-2-yl)-2,5-diphenyltetrazolium bromide] (MTT) assay after 72 h treatment. Six concentrations ranging from 0.1 to 100 μM were tested. MSA is largely known as the main CH3SeH putative precursor and was therefore included as positive control. The following parameters were calculated: GI50 (concentration which reduces the growth by 50%), TGI (concentration completely inhibiting growth) and LC50 (concentration that kills 50% of the cells).
(§2) All cells were purchased from the American Type Culture Collection (ATCC, Barcelona, Spain). HT-29 (colorectal adenocarcinoma), HTB-54 (grade III lung carcinoma), MCF7 (mammary adenocarcinoma), PC-3 (grade IV prostate adenocarcinoma) and K-562 (chronic myelogenous leukemia) were cultured in RPMI (Gibco, Madrid, Spain), 10% FBS (Gibco), 100 units/mL penicillin and 100 μg/mL streptomycin (Gibco). BEAS-2B cell line (normal epithelial lung) was cultured in DMEM (Gibco), 10% FBS, 100 units/mL penicillin and 100 μg/mL streptomycin. 184B5 (normal mammary gland) cell line was cultured in DMEM:F12 supplemented with 5% FBS, 1 × ITS (Lonza, Barcelona, Spain), 100 nM hydrocortisone (Sigma-Aldrich), 2 mM sodium pyruvate (Lonza), 20 ng/mL EGF (Sigma-Aldrich), 0.3 nM trans-retinoic acid (Sigma-Aldrich), 100 units/mL penicillin and 100 µg/mL streptomycin. Cells were cultured at 37 °C under 5% CO2.
(§3) Cell viability after treatment was assessed by the well-known 3-(4,5-dimethyl-thiazol-2-yl)-2,5-diphenyltetrazolium bromide (MTT, Sigma-Aldrich) assay. Briefly, 10,000 cells were seeded in 96-well plates, treated and incubated for 72 h. Dilutions of the compounds in cell medium were freshly prepared from a 0.01 M stock in DMSO. After treatment, 50 μL of MTT solution in PBS (2 mg/mL) were added and cells were incubated for 4 h. Medium was removed and 150 μL of DMSO was added to dissolve the formed formazan crystals. Absorbance was read at 550 nm in a microplate absorbance reader (Sunrise, Tecan, Männedorf, Switzerland).

[2] = MTT viability assay, BEAS-2B; assay type: cell-based; conditions: human
Protocol: as §1, §2, §3

[3] = system: PC-3 (prostate adenocarcinoma); test: MTT viability assay, PC-3; assay type: cell-based
Protocol: as §1, §2, §3

[4] = system: HT-29 (colorectal adenocarcinoma); test: MTT viability assay, HT-29; assay type: cell-based; conditions: HT-29, 72 h
Protocol: as §1, §2, §3

[5] = system: MCF7 (mammary adenocarcinoma); test: MTT viability assay, MCF7; assay type: cell-based; conditions: MCF7, 72 h
Protocol: as §1, §2, §3

HTB-54 (lung carcinoma) = test: MTT viability assay, HTB-54; assay type: cell-based; conditions: HTB-54, 72 h
Protocol: as §1, §2, §3

[6] = system: K-562 (chronic myelogenous leukemia); test: MTT viability assay, K-562; assay type: cell-based
Protocol: as §1, §2, §3

[7] = Methylselenol (CH3SeH) release by hydrolysis, quantified with DTNB (Ellman's reagent); assay type: physicochemical; conditions: 100 μM compound, 100 μM DTNB, phosphate buffer pH 8, 24 h
Excerpt: The new compounds were designed as CH3SeH precursors. The chemical features of the selenoester functional group facilitate a nucleophilic attack (i.e., with water) which would deliver the CH3SeH residue. In order to verify if CH3SeH could be released from the molecules by hydrolysis and if the rate differed among the compounds, the reaction of CH3SeH with 5,5′-dithiobis(2-nitrobenzoic acid) (DTNB or Ellman’s reagent) in aqueous environment was monitored. Briefly, when the disulfide bridge of DTNB reacts with thiols or selenols, 2-nitro-5-thiobenzoate (TNB^2−) is released and the mixed disulfide or selenylsulfide is formed. Each released CH3SeH produces one yellow TNB^2− species, whose absorbance can be quantified at 412 nm (Figure 2A).
A stock solution of the compounds was prepared in anhydrous DMSO (10 mM). The compounds were placed in a 96-well plate in a final concentration of 100 μM. Reaction started after adding 200 μL of an aqueous 100 mM Na2HPO4 buffer (1 mM EDTA, pH = 8), containing 100 μM of DTNB from a freshly prepared 10 mM ethanolic stock, which were added just before starting the reaction. The DTNB concentration was quantified with a cysteine standard curve ([…]). Blanks for the compounds in the absence of DTNB were also included as well as a blank to measure the slow but spontaneous hydrolysis of DTNB, which was further subtracted from all the values. Absorbance was read at 412 nm in a FLUOstar Omega microplate reader (BMG LabTech, Ortenberg, Germany). Results represent means of triplicate values ± SD.
Figure 2 CH3SeH release rates are dependent on the chemical features of the molecule. Released CH3SeH was quantified through reaction with Ellman’s reagent (DTNB). (A) Proposed reaction between CH3SeH and DTNB; (B) Quantification of TNB^2− at different times. The compounds were tested at 100 μM in 200 μL of 100 mM phosphate buffer (1 mM EDTA, pH = 8). DTNB concentration was also 100 μM. Absorbance was followed at 412 nm over 72 h. A cysteine standard curve (7.5–150 μM) was used to calculate the concentration of TNB^2− over time. Compounds showing less than 15% hydrolysis at 72 h are not included, except for compound 5 as example. Error bars indicate SD of triplicates.

[8] = system: 184B5 (non-malignant mammary epithelium); test: MTT viability assay, 184B5; assay type: cell-based; conditions: 184B5 non-malignant, 72 h, MTT
Protocol: as §1, §2, §3

[9] = MTT viability assay, 184B5; assay type: cell-based; conditions: human
Protocol: as §1, §2, §3

With `C[Se]C(=O)c1cnccn1` [Compound 3, Methyl pyrazinecarboselenoate] the TGI [1] was 6.1 ± 0.5 µM, the GI50 ([1]; Homo sapiens) was 3.6 ± 0.6 µM and the CC50 at 72 h [2] was 8.6 ± 0.5 µM. The CC50 ([3]; 72 h, read-out: LC50) was 60.5 ± 4.3 µM, the GI50 ([3]; PC-3, 72 h, MTT) was 5.4 ± 1.1 µM and the TGI ([3]; PC-3, 72 h, MTT) was 15.3 ± 1.7 µM. The TGI ([4]; MTT) was 9.1 ± 0.8 µM, the CC50 ([4]; Homo sapiens, read-out: LC50) was greater than 100 µM and the GI50 ([4]; Homo sapiens, MTT) was 4.7 ± 0.6 µM. For the same compound, the CC50 ([5]; Homo sapiens, read-out: LC50) was 40.1 ± 4.4 µM, the GI50 ([5]; Homo sapiens, MTT) was 3.5 ± 0.8 µM and the TGI ([5]; MTT) was 7.2 ± 1.0 µM. The GI50 (HTB-54 (lung carcinoma); MTT) was 6.2 ± 1.5 µM, the TGI (HTB-54 (lung carcinoma); MTT) was 21.1 ± 4.1 µM and the CC50 (HTB-54 (lung carcinoma); read-out: LC50) was 71.1 ± 3.8 µM. It also gave a CC50 ([6]; Homo sapiens, K562, 72 h, read-out: LC50) of 87.9 ± 2 µM, a GI50 ([6]; Homo sapiens, K562, K-562, 72 h, MTT) of 30.2 ± 2.2 µM and a TGI ([6]; K-562, 72 h, MTT) of 59.1 ± 2.1 µM. For the same compound, the “CH3SeH release at 24 h” value [7] was “completely released”, the TGI [8] was 6.6 ± 0.9 µM and the GI50 ([8]; Homo sapiens) was 3.1 ± 0.5 µM. The CC50 at 72 h [9] was 17.6 ± 4.4 µM.
